Laboratory results: patent US10151698B2, “Selection by compartmentalized screening” (Medical Research Council, priority 2003, dated 2018)

How the values were obtained:
[1] = biological target: T1, human recombinant PTPIB, residues 1-322 (Homo sapiens, UniProt P18031); test: Screening for PTPIB inhibitors in water-in-oil emulsion microcapsules with fluorogenic substrate DiFMUP, multi-colour flow cytometry; format: biochemical; details: 100 μM compound, 37° C. for 30 min
T1 construct: human recombinant PTPIB, residues 1-322; purchased Biomol Research Laboratories, Inc
T1 sequence (P18031 1-322): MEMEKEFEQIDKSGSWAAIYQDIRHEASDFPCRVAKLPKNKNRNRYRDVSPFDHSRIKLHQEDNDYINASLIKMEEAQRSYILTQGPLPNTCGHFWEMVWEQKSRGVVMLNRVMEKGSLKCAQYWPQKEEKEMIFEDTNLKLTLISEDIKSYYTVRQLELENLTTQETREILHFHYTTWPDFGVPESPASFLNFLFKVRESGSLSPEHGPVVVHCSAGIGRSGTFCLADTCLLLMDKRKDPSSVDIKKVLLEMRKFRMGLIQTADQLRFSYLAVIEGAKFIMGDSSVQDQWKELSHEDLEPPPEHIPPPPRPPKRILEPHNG
Method: The syringes are fitted into the openings on both sides of the filter holder of the extruder. The compound mix is forced through the filter holder into the alternate syringe containing the decane/surfactant mix and directly forced back into the original syringe to complete one round of extrusion. In total, 7.5 rounds of extrusion are completed. The filled syringe is removed from the extruder and emptied into a 1.7 ml Axygen tube (# MCT-175-C, Axygen Scientific, Inc., Union City, Calif., USA).
The two emulsions are mixed by vortexing in ratios varying from 1:1000 to 1:1 (compound 2 emulsion: hydrocinnamic acid emulsion) and incubated at 37° C. for 30 min. Inhibitors reduce the amount of non-fluorescent substrate (DiFMUP) converted to the dephosphorylated product (DiFMU; excitation/emmission maxima 358/452 nm; blue fluorescence). […]
The double emulsions are then analysed by multi-colour flow cytometery using a MoFlo (Cytomation) flow cytometer. […]
50 μl of each of the compound mixtures is added sequentially to a solution of 1% (w/v) Span 60 and 1% (w/v) cholesterol in decane, made and held at 37° C. as example 1, whilst homogenising at 25,000 r.p.m. using an Ultra-Turrax T8 Homogenizer (IKA) with a 5 mm dispersing tool. […] Inhibitors reduce the amount of non-fluorescent substrate (DiFMUP) converted to the dephosphorylated product (DiFMU; excitation/emmission maxima 358/452 nm; blue fluorescence). […]

[2] = biological target: T1, human recombinant PTPIB, residues 1-322; test: Screening for PTPIB inhibitors using microcapsules in microfluidic systems (DiFMUP, epifluorescence microscope); format: biochemical; details: Example 5; 100 μM compound solution; PTPIB 50 mU/ml; fused microcapsules run up to 2 min
Method: Microchannels are fabricated with rectangular cross-sections using rapid prototyping in poly(dimethylsiloxane) (PDMS) (McDonald and Whitesides, 2002) and rendered hydrophobic as (Song and Ismagilov, 2003). Syringe pumps were used to drive flows (Harvard Apparatus PHD 2000 Infusion pumps). For aqueous solutions, 50 μl Hamilton Gastight syringes (1700 series, TLL) with removeable needles of 27-gaugeare used with 30-gauge Teflon tubing (Weico Wire and Cable). For the carrier fluid, 1 ml Hamilton Gastight syringes (1700 series, TLL) are used with 30-gauge Teflon needles with one hub from Hamilton (Song and Ismagilov, 2003). The carrier fluid is 9% (v/v) C6F11C2H4OH in perfluorodecaline (PFD) (Song et al., 2003). All water-soluble reagents were dissolved in (25 mM HEPES, pH 7.4, 125 mM NaCl, 1 mM EDTA), a buffer compatible with PTPIB activity.
These three steams are continuously injected into a flow of water immiscible fluorocarbon carrier fluid (9% (v/v) C6FπC2H OH in PFD). Inlet channels for the aqueous solutions are […] wide and channel for PFD is 28 μm wide. […]
The channel immediately downstream of the point of droplet formation is winding with a peak to peak distance of 50 μm for a distance of 1 mm. […] Fluorescence of the microcapsules due to production of DiFMU (excitation/emmission maxima 358/452 nm; blue fluorescence) is measured using an epifluorescence microscope.

[3] = biological target: T2, PTPIB (Homo sapiens, UniProt P18031); details: Johnson et al., 2002; cited from earlier work
T2 sequence (P18031 1-435): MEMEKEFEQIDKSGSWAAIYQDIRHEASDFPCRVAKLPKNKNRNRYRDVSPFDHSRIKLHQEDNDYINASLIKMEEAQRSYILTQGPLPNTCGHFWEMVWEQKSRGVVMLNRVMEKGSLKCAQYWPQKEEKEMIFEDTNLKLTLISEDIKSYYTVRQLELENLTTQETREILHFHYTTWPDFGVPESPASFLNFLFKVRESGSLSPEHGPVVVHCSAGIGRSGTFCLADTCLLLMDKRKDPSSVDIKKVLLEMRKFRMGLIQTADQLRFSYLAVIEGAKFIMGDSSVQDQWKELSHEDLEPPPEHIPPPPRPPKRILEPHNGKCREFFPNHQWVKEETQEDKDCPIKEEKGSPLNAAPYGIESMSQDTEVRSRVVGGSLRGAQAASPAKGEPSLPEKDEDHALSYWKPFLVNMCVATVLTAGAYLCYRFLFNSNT

[4] = Compartmentalisation of small molecules in water-in-fluorocarbon emulsions (epifluorescence microscopy); format: physicochemical; details: water-in-perfluorooctyl bromide emulsions mixed by vortexing; 24 hours after mixing
Method: FIG. 3. Compartmentalisation of small molecules in water-in-fluorocarbon emulsions. Water-in-perfluorooctyl bromide emulsions were made containing texas red (1 mM) and calcein (1 mM) in the aqueous phase by homogenisation as described in example 9. The two emulsions were mixed by vortexing and imaged by epifluorescence microscopy after 24 hours. No exchange of texas-red (red fluorescence) and calcein (green fluorescence) between microdroplets could be observed.
Water-in-fluorocarbon emulsions containing 95% (v/v) perfluorooctyl bromide, 5% (v/v) phosphate buffered saline containing the molecule of interest in solution, and 2% (w/v) C8F17C11H22OP(O)[N(CH2CH2)2O]2 (F8H11DMP) as surfactant were formed essentially as (Sadtler et al., 1996) by extrusion (15 times) through 14 μm filters (Osmonics) or by homogenising for 5 min at 25,000 r.p.m. using an Ultra-Turrax T8 Homogenizer (IKA) with a 5 mm dispersing tool. Emulsions were made containing a series of small fluorescent molecules dissolved in the aqueous phase at concentrations from […] to 2 mM. These molecules, including calcein, texas red, fluorescein, coumarin 102, 7-hydroxycoumarin-3-carboxylic acid and 7-diethylamino-4-methyl coumarin (coumarin 1), had molecular weights from 203 to 625 Da and Log P values—calculated using SRC's Log Kow/KowWin Program (Meylan and Howard, 1995)—ranging from −0.49 to 4.09. […]

| blue fluorescence of microcapsules (DiFMU from dephosphorylation of DiFMUP by PTPIB) ([1]; Example 1, two emulsions mixed 1:1000 to 1:1) | blue fluorescence of microcapsules (DiFMU from dephosphorylation of DiFMUP by PTPIB) ([1]; Example 2, mixtures added sequentially to one oil phase) | fluorescence of the microcapsules due to production of DiFMU [2] | exchange between microdroplets/compartments [4] | Compound | PTPIB inhibitor or not [3] |
| --- | --- | --- | --- | --- | --- |
| also show blue fluorescence | also show blue fluorescence | exhibiting blue fluorescence |  | O=C(O)CCc1ccccc1 [hydrocinnamic acid] | not a PTPIB inhibitor |
|  |  |  | No exchange | O=C(O)CN(CC(=O)O)Cc1cc2c(cc1O)Oc1cc(O)c(CN(CC(=O)O)CC(=O)O)cc1C21OC(=O)c2ccccc21 [calcein] |  |
|  |  |  | No exchange | texas red |  |
